# According to patent EP0080305A1, “Antiviral 2'-deoxyuridines, their preparation and use” (BEECHAM GROUP PLC, priority 1981, dated 1983):
# Counter-ions that a name gives are not always drawn. Like-named read-outs stand apart in the source and are kept apart here.
# Columns and labels:
# [1] = system: Herpes simplex type 1 virus (HFEM strain); test: Plaque reduction test in Vero cells infected with Herpes simplex type 1 virus; format: cell-based
# Description: (§1) Vero (African Green Monkey Kidney) cells were grown to confluence in 6 well multidishes, each well being 3.5 cm in diameter. The cells were incubated with Herpes simplex type 1 virus (HFEM strain) and overlaid with 0.5 mL of 0.9% agarose (w/v) in maintenance medium containing the test compound at a range of concentrations from 3 µg/mL in half-log dilution steps. The virus infected cultures were then incubated at 37 °C for 6 days before fixing in 4% formaldehyde solution and staining with carbolfuchsin. The dishes were then examined to find what concentration of test compound causing a 50% reduction in the number of virus plaques formed (PDD50 value) and the minimum concentration of test compound which killed the cell monolayer, leaving a clear zone devoid of cells and virus plaques (MTD).
# [2] = Minimum concentration killing the Vero cell monolayer, read in the plaque reduction test; format: cell-based, African Green Monkey; settings: african green monkey; minimum concentration which killed the cell monolayer; virus-infected Vero cells, 6 days at 37°C; read-out: MTD
# Description: as §1
# [3] = Human alphaherpesvirus 1, 144 h, concentration causing a 50% reduction in the number of virus plaques, 6 days at 37°C, read-out: PDD50 (the source's name)
# [4] = Human alphaherpesvirus 1, 144 h, same PDD50 values given in µM, 6 days at 37°C, read-out: PDD50 (the source's name)
# [5] = Human alphaherpesvirus 1, Vero, 144 h, read-out: PDD50, concentration causing a 50% reduction in the number of virus plaques, 6 days at 37°C
# [6] = Human alphaherpesvirus 1, Vero, 144 h, read-out: PDD50, same PDD50 values given in µM, 6 days at 37°C
Compound,"PDD50 ([1]; concentration causing a 50% reduction in the number of virus plaques, 6 days at 37°C, trifluoroacetate) [µg/mL]","IC50 ([1]; read-out: PDD50, same PDD50 values given in µM, 6 days at 37°C, trifluoroacetate) [µM]",MCC at 144 h [2] [µg/mL],"IC50 [1, 3] [µg/mL]","IC50 [1, 4] [µM]","IC50 [1, 5] [µg/mL]","IC50 [1, 6] [µM]"
"CC(C)C[C@H](N)C(=O)OC[C@H]1O[C@@H](n2cc(/C=C/Br)c(=O)[nH]c2=O)C[C@@H]1OC(=O)[C@@H](N)CC(C)C [Example 16, E-5-(2-Bromovinyl)-3',5'-di-L-leucyl-2'-deoxyuridine trifluoroacetate]",0.02,0.025,> 100,,,,
"CC(C)C[C@@H](NC(=O)OC(C)(C)C)C(=O)OC[C@H]1O[C@@H](n2cc(/C=C/Br)c(=O)[nH]c2=O)C[C@@H]1OC(=O)[C@@H](CC(C)C)NC(=O)OC(C)(C)C [Example 19, E-5-(2-Bromovinyl)-3',5'-di-(t-butoxy-carbonyl-D-leucyl)-2'-deoxyuridine]",,,> 100,> 100,,,
"CC(C)(C)OC(=O)N[C@H](Cc1ccccc1)C(=O)OC[C@H]1O[C@@H](n2cc(/C=C/Br)c(=O)[nH]c2=O)C[C@@H]1OC(=O)[C@@H](Cc1ccccc1)NC(=O)OC(C)(C)C [Example 20, E-5-(2-Bromovinyl)-3',5'-di-(t-butoxy-carbonyl-D-phenylalanyl)-2'-deoxyuridine]",,,> 100,> 100,,,
"CSCC[C@H](NC(=O)OC(C)(C)C)C(=O)OC[C@H]1O[C@@H](n2cc(/C=C/Br)c(=O)[nH]c2=O)C[C@@H]1OC(=O)[C@H](CCSC)NC(=O)OC(C)(C)C [Example 21, E-5-(2-Bromovinyl)-3',5'-di-(t-butoxy-carbonyl-L-methionyl)-2'-deoxyuridine]",,,> 100,1.71,2.15,,
"CC(C)[C@H](NC(=O)OC(C)(C)C)C(=O)OC[C@H]1O[C@@H](n2cc(/C=C/Br)c(=O)[nH]c2=O)C[C@@H]1OC(=O)[C@@H](NC(=O)OC(C)(C)C)C(C)C [Example 22, E-5-(2-Bromovinyl)-3',5'-di-(t-butoxy-carbonyl-L-valyl)-2'-deoxyuridine]",,,> 100,> 100,,,
"CC[C@H](C)[C@H](NC(=O)OC(C)(C)C)C(=O)OC[C@H]1O[C@@H](n2cc(/C=C/Br)c(=O)[nH]c2=O)C[C@@H]1OC(=O)[C@@H](NC(=O)OC(C)(C)C)[C@@H](C)CC [Example 23, E-5-(2-Bromovinyl)-3',5'-di-(t-butoxy-carbonyl-L-isoleucyl)-2'-deoxyuridine]",,,> 100,> 100,,,
"C[C@H](NC(=O)OC(C)(C)C)C(=O)OC[C@H]1O[C@@H](n2cc(/C=C/Br)c(=O)[nH]c2=O)C[C@@H]1OC(=O)[C@H](C)NC(=O)OC(C)(C)C [Example 24, E-5-(2-Bromovinyl)-3',5'-di-(t-butoxy-carbonyl-L-alanyl)-2'-deoxyuridine]",,,> 100,0.62,0.92,,
"CC(C)(C)OC(=O)N[C@@H](CCC(N)=O)C(=O)OC[C@H]1O[C@@H](n2cc(/C=C/Br)c(=O)[nH]c2=O)C[C@@H]1OC(=O)[C@H](CCC(N)=O)NC(=O)OC(C)(C)C [Example 25, E-5-(2-Bromovinyl)-3',5'-di-(t-butoxycarbonyl-L-glutaminyl)-2'-deoxyuridine]",,,> 100,0.47,0.6,,
"CC(C)(C)OC(=O)NCCCC[C@H](NC(=O)OC(C)(C)C)C(=O)OC[C@H]1O[C@@H](n2cc(/C=C/Br)c(=O)[nH]c2=O)C[C@@H]1OC(=O)[C@H](CCCCNC(=O)OC(C)(C)C)NC(=O)OC(C)(C)C [Example 26, E-5-(2-Bromovinyl)-3',5'-bis-(Nβ,Nε-di-t-butoxycarbonyl-L-lysyl)-2'-deoxyuridine]",,,> 100,90,91,,
"CC(C)(C)OC(=O)N1CCC[C@H]1C(=O)OC[C@H]1O[C@@H](n2cc(/C=C/Br)c(=O)[nH]c2=O)C[C@@H]1OC(=O)[C@@H]1CCCN1C(=O)OC(C)(C)C [Example 27, E-5-(2-Brcmovinyl)-3',5'-di-(t-butoxycarbonyl-L-prolyl)-2'-deoxyuridine]",,,100,3.51,4.83,,
CC(C)(C)OC(=O)N1CCC[C@H]1C(=O)OC[C@H]1O[C@@H](n2cc(/C=C/Br)c(=O)[nH]c2=O)C[C@@H]1O [Example 28],,,100,2.12,4,,
"CC(C)(C)OC(=O)N1CCC[C@H]1C(=O)O[C@H]1C[C@H](n2cc(/C=C/Br)c(=O)[nH]c2=O)O[C@@H]1CO [Example 29, E-5-(2-Bromovinyl)-3'-(t-butoxycarbonyl-L-prolyl)-2'-decxyuridine]",,,100,0.64,1.21,,
"CC(C)C[C@@H](N)C(=O)OC[C@H]1O[C@@H](n2cc(/C=C/Br)c(=O)[nH]c2=O)C[C@@H]1OC(=O)[C@H](N)CC(C)C [Example 30, E-5-(2-Bromovinyl)-3',5'-di-D-leucyl-2'-deoxyuridine bis trifluoroacetate]",,,> 100,,,0.16,0.2
"N[C@H](Cc1ccccc1)C(=O)OC[C@H]1O[C@@H](n2cc(/C=C/Br)c(=O)[nH]c2=O)C[C@@H]1OC(=O)[C@H](N)Cc1ccccc1 [Example 31, E-5-(2-Bromovinyl)-3',5'-di-D-phenylalanyl--2'-deoxyuridine bis trifluoroacetate]",,,> 100,,,0.55,0.64
"CSCC[C@H](N)C(=O)OC[C@H]1O[C@@H](n2cc(/C=C/Br)c(=O)[nH]c2=O)C[C@@H]1OC(=O)[C@@H](N)CCSC [Example 32, E-5-(2-Bromovinyl)-3',5'-di-L-methionyl-2'-deoxyuridine bis trifluoroacetate]",,,> 100,,,0.26,0.32
"CC(C)[C@H](N)C(=O)OC[C@H]1O[C@@H](n2cc(/C=C/Br)c(=O)[nH]c2=O)C[C@@H]1OC(=O)[C@@H](N)C(C)C [Example 33, E-5-(2-Bromovinyl)-3',5'-di-L-valyl-2'-deoxyuridine bis trifluoroacetate]",,,> 100,,,0.24,0.32
"CC[C@H](C)[C@H](N)C(=O)OC[C@H]1O[C@@H](n2cc(/C=C/Br)c(=O)[nH]c2=O)C[C@@H]1OC(=O)[C@@H](N)[C@@H](C)CC [Example 34, E-5-(2-Bromovinyl)-3',5'-di-L-isoleucyl-2'-deoxyuridine bis trifluoroacetate]",,,> 100,,,0.4,0.51
"O=C(OC[C@H]1O[C@@H](n2cc(/C=C/Br)c(=O)[nH]c2=O)C[C@@H]1OC(=O)[C@@H]1CCCN1)[C@@H]1CCCN1 [Example 35, E-5-(2-Bromovinyl)-3',5'-di-L-prolyl-2'-deoxyuridine bis trifluoroacetate]",,,> 100,,,0.22,0.29
"O=C(OC[C@H]1O[C@@H](n2cc(/C=C/Br)c(=O)[nH]c2=O)C[C@@H]1O)[C@@H]1CCCN1 [Example 36, E-5-(2-Bromovinyl)-5'-L-prolyl-2'-deoxyuridine trifluoroacetate]",,,> 100,,,0.55,1.01
"O=C(O[C@H]1C[C@H](n2cc(/C=C/Br)c(=O)[nH]c2=O)O[C@@H]1CO)[C@@H]1CCCN1 [Example 37, E-5-(2-Bromovinyl)-3'-L-prolyl-2'-deoxyuridine trifluoroacetate]",,,> 100,,,0.68,1.25
"NC(=O)CC[C@H](N)C(=O)OC[C@H]1O[C@@H](n2cc(/C=C/Br)c(=O)[nH]c2=O)C[C@@H]1OC(=O)[C@@H](N)CCC(N)=O [Example 39, bis trifluoroacetate]",,,> 100,,,0.42,0.51
